In patent US10501482B2, “Compounds for treating spinal muscular atrophy” (Hoffmann-La Roche Inc., priority 2013, dated 2019):
Structures can show the parent of a compound that is named as a salt.

Legend:
[1] = tested on: SMN protein; assay: SMN protein assay (HTRF) in cultured SMA patient fibroblast cells; type: cell-based; conditions: SMA Type 1 human fibroblasts GM03813, 48 hours; for EC1.5x SMN protein (EC1.5x concentration for SMN protein expression): 7-point concentration curve, concentration giving 1.5 times SMN protein vs vehicle; for max. fold increase (maximum fold increase of SMN protein): 7-point concentration data, fold vs vehicle control
In short: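 SMA patient fibroblasts seeded at 5,000 cells/well, treated 48 h at 37 °C in triplicate per concentration (7-point series). Lysed in RIPA with protease inhibitors; SMN read by HTRF (anti-SMN d2/kryptate, overnight RT), 665/620 nm ratio. ΔF vs blank, expressed as fold over vehicle; EC1.5x and maximum fold increase derived.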

[2] = tested on: full length SMN2 minigene mRNA (FL SMN2mini) in HEK293H cells stably transfected with the SMN2-A minigene construct; assay: SMN2 minigene mRNA splicing RT-qPCR assay in cultured cells; type: cell-based; conditions: Homo sapiens, HEK293-H, 24 hours, 7-point concentration curve, concentration giving 1.5-fold FL SMN2mini mRNA vs vehicle, read-out: EC1.5x minigene (EC1.5x concentration for production of full length SMN2 minigene mRNA)
In short: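 Stably transfected HEK293H cells, 10,000/well in DMEM/10% FBS with hygromycin, attached 6 h, then received compound for 24 h at 37° C in duplicate at 7 concentrations. Multiplex RT-qPCR with GAPDH used primers that detect only the minigene. An efficiency-corrected ΔΔCt, GAPDH- and vehicle-normalized, gave EC1.5x concentrations.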

| SMILES | EC1.5x SMN protein (EC1.5x concentration for SMN protein expression) [1] [µM] | max. fold increase (maximum fold increase of SMN protein) [1] | EC (1.5-fold) [2] [µM] |
| --- | --- | --- | --- |
| Cc1cn2cc(NC(=O)c3ccc(N4CCN5CCC[C@H]5C4)nc3)cc(C(F)(F)F)c2n1 [Example 21, (S)-6-(hexahydro-pyrrolo[1,2-a]-pyrazin-2(1H)-yl)-N-(2-methyl-8-(trifluoromethyl)-imidazo[1,2-a]-pyridin-6-yl)-nicotinarnide] | 0.6542 | 1.7755 | 0.386 |
| Cc1cn2cc(NC(=O)c3ccc(N4CCNCC4)cc3)nc2c(C)n1 [Example 1, N-(6,8-dimethylimidazo[1,2-a]pyrazin-2-yl)-4-(piperazin-1-yl)benzamide] | 0.7747 | 1.6736 | 0.0316 |
| Cc1cn2cc(NC(=O)c3ccc(N4CCNCC4)cc3)cc(F)c2n1.Cl [Example 36, N-(8-fluoro-2-methylimidazo[1,2-a]pyridin-6-yl)-4-(piperazin-1-yl)benzamide hydrochloride] | 0.1094 | 1.7018 | 0.0278 |
| Cc1cn2cc(NC(=O)c3ccc(N4C[C@H]5CNC[C@H]5C4)nc3)ccc2n1 [Example 15, 6-hexahydro-pyrrolo[3,4-c]-pyrrol-2(1H)-yl)-N-(2-methyl-imidazo[1,2-a]-pyridin-6-yl)-nicotinamide hydrochloride] | 0.281 | 1.6859 | 0.254 |
| Cc1cn2cc(NC(=O)c3cnc(N4CCNC(C)C4)c(F)c3)cc(Cl)c2n1 (racemic) [Example 53, rac-N-(8-chloro-2-methylimidazo-[1,2-a]pyridin-6-yl)-5-fluoro-6-(3-methylpiperazin-1-yl)nicotinamide hydrochloride] | 0.7455 | 1.6563 | 0.21 |
| CCOc1nc(N2CCNCC2)ccc1C(=O)Nc1cc(F)c2nc(C)cn2c1 [Example 72, 2-ethoxy-N-(8-fluoro-2-methylimidazo[1,2-a]pyridin-6-yl)-6-(piperazin-1-yl)-nicotinamide] | 0.1324 | 1.7095 | 0.015 |
| Cc1cn2cc(NC(=O)c3ccc(N4CCNCC4)cn3)nc2c(C)n1 [Example 11, N-(6,8-dimethyl-imidazo[1,2-a]-pyrazin-2-yl)-5-(piperazin-1-yl)picolinamide] | 0.321 | 1.7143 | 0.297 |
| Cc1cn2cc(NC(=O)c3ccc(N4CCN(C)CC4)nc3)nc2c(C)n1 [Example 6, N-(6,8-dimethyl-imidazo[1,2-a]-pyrazin-2-yl)-6-(4-methyl-piperazin-1-yl)nicotinarnide] | 0.5305 | 1.8047 | 0.233 |
| Cc1cn2cc(NC(=O)c3ccc(N4CCNC(C)C4)cc3F)cc(F)c2n1 (racemic) [Example 39, rac-2-fluoro-N-(8-fluoro-2-methyl-imidazo[1,2-a]-pyridin-6-yl)-4-(3-methylpiperazin-1-yl)benzamide dihydrochloride] | 0.0147 | 1.8791 | 0.0168 |
| Cc1cn2cc(NC(=O)c3c(F)cc(N4CCNC(C)C4)cc3F)cc(Cl)c2n1 (racemic) [Example 57, rac-N-(8-chloro-2-methylimidazo[1,2-a]pyridin-6-yl)-2,6-difluoro-4-(3-methylpiperazin-1-yl)benzamide trihydrochloride] | 1.7363 | 1.578 | 0.0262 |
| Cc1cn2cc(NC(=O)c3ccc(N4CCNC(C)C4)cc3)nc2c(C)n1 (racemic) [Example 2, rac-N-(6,8-dimethyl-imidazo[1,2-a]-pyrazin-2-yl)-4-(3-methylpiperazin-1-yl)benzamide] | 0.2984 | 1.8878 | 0.14 |
| Cc1nc2c(F)cc(NC(=O)c3ccc(N4CCNC(C)C4)cc3)cc2o1 (racemic) [Example 29, rac-N-(4-fluoro-2-methylbenzo[d]-oxazol-6-yl)-4-(3-methylpiperazin-1-yl)benzamide] | 0.4618 | 1.632 | 0.267 |
| Cc1cn2cc(NC(=O)c3ccc(C4CCN(C)CC4)nc3)cc(F)c2n1 [Example 80, N-(8-fluoro-2-methylimidazo[1,2-a]pyridin-6-yl)-6-(1-methylpiperidin-4-yl)nicotinamide] | 0.52 | 1.5928 | 0.115 |
| Cc1cn2cc(NC(=O)c3ccc(N4CCNCC4)cc3F)cc(C(F)(F)F)c2n1 [Example 59, 2-fluoro-N-(2-methyl-8-(trifluoromethyl)-imidazo[1,2-a]-pyridin-6-yl)-4-(piperazin-1-yl)-benzamide] | 0.2749 | 1.7116 | 0.109 |
| Cc1cn2cc(NC(=O)c3c(F)cc(N4CCNC(C)C4)cc3F)cc(F)c2n1.Cl (racemic) [Example 49, rac-2,6-difluoro-N-(8-fluoro-2-methyl-imidazo[1,2-a]-pyridin-6-yl)-4-(3-methylpiperazin-1-yl)benzamide hydrochloride] | 0.1733 | 1.658 | 0.0107 |
| CCN1CCN(c2ccc(C(=O)Nc3cn4cc(C)nc(C)c4n3)cn2)CC1 [Example 8, N-(6,8-dimethyl-imidazo[1,2-a]-pyrazin-2-yl)-6-(4-ethyl-piperazin-1-yl)nicotinamide] | 0.5175 | 1.7677 | 0.201 |
| Cc1cn2cc(NC(=O)c3ccc(N4CC5(CNC5)C4)nc3)ccc2n1 [Example 16, N-(2-methyl-imidazo[1,2-a]-pyridin-6-yl)-6-(2,6-diazaspiro-[3,3]heptan-2-yl)nicotinamide hydrochloride] | 1.1992 | 1.6598 | 1.04 |
| Cc1cn2cc(NC(=O)c3ncc(N4CCNC(C)C4)cc3F)cc(F)c2n1 (racemic) [Example 48, rac-3-fluoro-N-(8-fluoro-2-methyl-imidazo[1,2-a]-pyridin-6-yl)-5-(3-methylpiperazin-1-yl)picolinamide hydrochloride] | 0.0621 | 1.738 | 0.0164 |
| Cc1cn2cc(NC(=O)c3ccc(N4CCNC(C)C4)nc3)cc(Cl)c2n1 (racemic) [Example 55, rac-N-(8-chloro-2-methylimidazo[1,2-a]pyridin-6-yl)-6-(3-methylpiperazin-1-yl)nicotinamide dihydrochloride] | 0.7112 | 1.8752 | 0.141 |
| COc1cc(N2CCNCC2)ncc1C(=O)Nc1cc(F)c2nc(C)cn2c1 [Example 69, N-(8-fluoro-2-methylimidazo[1,2-a]pyridin-6-yl)-4-methoxy-6-(piperazin-1-yl)nicotinamide] | 0.1645 | 1.7612 | 0.0308 |
| Cc1nc2ccc(NC(=O)c3ccc(N4CCNC(C)C4)cc3F)cc2o1 (racemic) [Example 38, rac-2-fluoro-N-(2-methylbenzo[d]-oxazol-6-yl)-4-(3-methylpiperazin-1-yl)benzamide dihydrochloride] | 0.6124 | 1.8706 | 0.472 |
| Cc1nc2c(F)cc(NC(=O)c3ccc(N4CCNCC4)nc3)cc2o1 [Example 26, N-(4-Fluoro-2-methylbenzo-oxazol-6-yl)-6-piperazin-1-yl-nicotinamide] | 0.2853 | 1.8316 | 0.0445 |
| Cc1nc2c(F)cc(NC(=O)c3ccc(N4CCN5CCC[C@H]5C4)nc3)cc2o1 [Example 25, (S)-N-(4-fluoro-2-methylbenzo[d]oxa-zol-6-yl)-6-(hexa-hydropyrrolo[1,2-a]pyrazin-2-(1H)-yl)nicotinamide] | 0.5694 | 1.6652 | 0.382 |
| Cc1cn2cc(NC(=O)c3ccc(N4CCN5CCC[C@H]5C4)cc3F)cc(C(F)(F)F)c2n1 [Example 35, (S)-2-fluoro-4-(hexahydro-pyrrolo[1,2-a]-pyrazin-2(1H)-yl)-N-(2-methyl-8-(trifluoro-methyl)imidazo-[1,2-a]pyridin-6-yl]benzamide] | 1.2664 | 1.6275 | 0.202 |
